Experimental data as given in US11078216B2, “Bisaryl amides as NRF2 activators” (GLAXOSMITHKLINE INTELLECTUAL PROPERTY DEVELOPMENT LIMITED, priority 2016, dated 2021).

system: NRF2 (NQO1 activity as marker for NRF2 activation), BEAS-2B cells; assay: BEAS-2B NQO1 MTT Assay; format: cell-based; conditions: Homo sapiens, EC50 of NQO1 specific activity induction, 48 hours incubation, read-out: EC50
In short: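 BEAS-2B cells were exposed to compound for 48 h at 37° C, 5% CO2, then lysed. NQO1 activity was measured kinetically by MTT reduction at 570 nm over 30 minutes; EC50 came from 3-parameter fit of Delta OD/min versus log concentration.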

Which EC50 does the source give for `CCn1nnc2c(C)c([C@H](c3ccc(C)c(CN4C[C@@H](C)Cc5cc(C(F)(F)F)ccc5S4(=O)=O)c3)[C@@H](C)C(=O)Nc3cccnc3)ccc21` [Example 177, (2R,3S)-3-(1-ethyl-4-methyl-1H-benzo[d][1,2,3]triazol-5-yl)-2-methyl-3-(4-methyl-3-(((S)-4-methyl-1,1-dioxido-7-(trifluoromethyl)-4,5-dihydrobenzo[f][1,2]thiazepin-2(3H)-yl)methyl)phenyl)-N-(pyridin-3-yl)propanamide] here?
Its EC50 is 1 to 10 nM.

For `CCn1nnc2c(C)c([C@@H](CC(=O)Nc3cccnc3)c3ccc(C)c(CN4C[C@@H](C)Cc5ccc(F)cc5S4(=O)=O)c3)ccc21` [Example 178, (S)-3-(1-ethyl-4-methyl-1H-benzo[d][1,2,3]triazol-5-yl)-3-(3-(((S)-8-fluoro-4-methyl-1,1-dioxido-4,5-dihydrobenzo[f][1,2]thiazepin-2(3H)-yl)methyl)-4-methylphenyl)-N-(pyridin-3-yl)propanamide], which EC50 is on record?
The EC50 was 10 to 100 nM.

`CCn1nnc2c(C)c([C@H](c3ccc(C)c(CN4C[C@@H](C)Cc5ccc(C(F)(F)F)cc5S4(=O)=O)c3)[C@@H](C)C(=O)Nc3cccnc3)ccc21` [Example 179, (2R,3S)-3-(1-ethyl-4-methyl-1H-benzo[d][1,2,3]triazol-5-yl)-2-methyl-3-(4-methyl-3-(((S)-4-methyl-1,1-dioxido-8-(trifluoromethyl)-4,5-dihydrobenzo[f][1,2]thiazepin-2(3H)-yl)methyl)phenyl)-N-(pyridin-3-yl)propanamide] was tested. Which EC50 did it give?
Its EC50 is 1 to 10 nM.

For `CC[C@H]1Cc2ccc(C(F)(F)F)cc2S(=O)(=O)N(Cc2cc([C@@H](c3ccc4c(nnn4CC)c3C)[C@@H](C)C(=O)Nc3cccnc3)ccc2C)C1` [Example 180, (2R,3S)-3-(3-(((S)-4-ethyl-1,1-dioxido-8-(trifluoromethyl)-4,5-dihydrobenzo[f][1,2]thiazepin-2(3H)-yl)methyl)-4-methylphenyl)-3-(1-ethyl-4-methyl-1H-benzo[d][1,2,3]triazol-5-yl)-2-methyl-N-(pyridin-3-yl)propanamide], which EC50 is on record?
The EC50 was 1 to 10 nM.

For `CCn1nnc2c(C)c([C@@H](CC(=O)Nc3cccnc3)c3ccc(C)c(CN4C[C@@H](C)Cc5ccc(C(F)(F)F)cc5S4(=O)=O)c3)cc(OC)c21` [Example 181, (S)-3-(1-ethyl-7-methoxy-4-methyl-1H-benzo[d][1,2,3]triazol-5-yl)-3-(4-methyl-3-(((S)-4-methyl-1,1-dioxido-8-(trifluoromethyl)-4,5-dihydrobenzo[f][1,2]thiazepin-2(3H)-yl)methyl)phenyl)-N-(pyridin-3-yl)propanamide], which EC50 is on record?
The EC50 was 10 to 100 nM.

How did the EC50 turn out when `CC[C@@H]1CN(Cc2cc([C@@H](c3ccc4c(nnn4CC)c3C)[C@@H](C)C(N)=O)ccc2C)Cc2ncccc2O1` [Example 182, (2R,3S)-3-(3-(((R)-2-ethyl-2,3-dihydropyrido[2,3-f][1,4]oxazepin-4(5H)-yl)methyl)-4-methylphenyl)-3-(1-ethyl-4-methyl-1H-benzo[d][1,2,3]triazol-5-yl)-2-methylpropanamide] was run?
The EC50 was 100 to 1000 nM.

Which EC50 does the source give for `CC[C@H]1Cc2cccc(C(F)(F)F)c2CN(Cc2cc([C@@H](c3ccc4c(nnn4CC)c3C)C(C)(C)C(N)=O)ccc2C)C1` [Example 183, (S)-3-(1-ethyl-4-methyl-1H-benzo[d][1,2,3]triazol-5-yl)-3-(3-(((S)-4-ethyl-9-(trifluoromethyl)-4,5-dihydro-1H-benzo[c]azepin-2(3H)-yl)methyl)-4-methylphenyl)-2,2-dimethylpropanamide] here?
The EC50 was 100 to 1000 nM.

With `CC[C@@H]1CN(Cc2cc([C@@H](c3ccc4c(nnn4CC)c3C)C(C)(C)C(N)=O)ccc2C)Cc2ncccc2O1` [Example 184, (S)-3-(3-(((R)-2-ethyl-2,3-dihydropyrido[2,3-f][1,4]oxazepin-4(5H)-yl)methyl)-4-methylphenyl)-3-(1-ethyl-4-methyl-1H-benzo[d][1,2,3]triazol-5-yl)-2,2-dimethylpropanamide] as the compound, how does the EC50 read?
Its EC50 is 100 to 1000 nM.

How did the EC50 turn out when `CC[C@@H]1CN(Cc2cc([C@@H](CCc3cn(C4CCC4)nn3)C(C)(C)C(N)=O)ccc2Cl)S(=O)(=O)c2ccccc2O1` [Example 185, (R)-3-(4-chloro-3-(((R)-4-ethyl-1,1-dioxido-3,4-dihydro-2H-benzo[b][1,4,5]oxathiazepin-2-yl)methyl)phenyl)-5-(1-cyclobutyl-1H-1,2,3-triazol-4-yl)-2,2-dimethylpentanamide] was run?
The EC50 was 100 to 1000 nM.

For `CC[C@@H]1CN(Cc2cc([C@@H](c3ccc4c(nnn4CC)c3C)C(C)(C)C(=O)Nc3cnc(CO[Si](C)(C)C(C)(C)C)nc3)ccc2C)S(=O)(=O)c2ccccc2O1` [Example 186, (S)—N-(2-(((tert-Butyldimethylsilyl)oxy)methyl)pyrimidin-5-yl)-3-(3-(((R)-4-ethyl-1,1-dioxido-3,4-dihydro-2H-benzo[b][1,4,5]oxathiazepin-2-yl)methyl)-4-methylphenyl)-3-(1-ethyl-4-methyl-1H-benzo[d][1,2,3]triazol-5-yl)-2,2-dimethylpropanamide], which EC50 is on record?
The EC50 was 100 to 1000 nM.

`CC[C@@H]1CN(Cc2cc([C@@H](c3ccc4c(nnn4CC)c3C)C(C)(C)C(=O)Nc3cnc(C(C)(C)O[Si](C)(C)C(C)(C)C)nc3)ccc2C)S(=O)(=O)c2ccccc2O1` [Example 187, (S)-N-(2-(2-((tert-Butyldimethylsilyl)oxy)propan-2-yl)pyrimidin-5-yl)-3-(3-(((R)-4-ethyl-1,1-dioxido-3,4-dihydro-2H-benzo[b][1,4,5]oxathiazepin-2-yl)methyl)-4-methylphenyl)-3-(1-ethyl-4-methyl-1H-benzo[d][1,2,3]triazol-5-yl)-2,2-dimethylpropanamide] was tested. Which EC50 did it give?
Its EC50 is 1000 to 10000 nM.

How did the EC50 turn out when `CC[C@@H]1CN(Cc2cc([C@@H](c3ccc4c(nnn4CC)c3C)C(C)(C)C(=O)Nc3cnc(CNC(=O)OC(C)(C)C)nc3)ccc2C)S(=O)(=O)c2ccccc2O1` [Example 188, tert-Butyl ((5-((S)-3-(3-(((R)-4-ethyl-1,1-dioxido-3,4-dihydro-2H-benzo[b][1,4,5]oxathiazepin-2-yl)methyl)-4-methylphenyl)-3-(1-ethyl-4-methyl-1H-benzo[d][1,2,3]triazol-5-yl)-2,2-dimethylpropanamido)pyrimidin-2-yl)methyl)carbamate] was run?
Its EC50 is 10 to 100 nM.

For `CC[C@@H]1CN(Cc2cc([C@@H](c3ccc4c(nnn4CC)c3C)C(C)(C)C(=O)Nc3cnc(C(=O)N(C)C)nc3)ccc2C)S(=O)(=O)c2ccccc2O1` [Example 189, 5-((S)-3-(3-(((R)-4-Ethyl-1,1-dioxido-3,4-dihydro-2H-benzo[b][1,4,5]oxathiazepin-2-yl)methyl)-4-methylphenyl)-3-(1-ethyl-4-methyl-1H-benzo[d][1,2,3]triazol-5-yl)-2,2-dimethylpropanamido)-N,N-dimethylpyrimidine-2-carboxamide], which EC50 is on record?
The EC50 was 100 to 1000 nM.

Which EC50 does the source give for `CC[C@@H]1CN(Cc2cc([C@@H](c3ccc4c(nnn4CC)c3C)C(C)(C)C(=O)Nc3cnc(OCC(=O)OC)nc3)ccc2C)S(=O)(=O)c2ccccc2O1` [Example 190, Methyl 2-((5-((S)-3-(3-(((R)-4-ethyl-1,1-dioxido-3,4-dihydro-2H-benzo[b][1,4,5]oxathiazepin-2-yl)methyl)-4-methylphenyl)-3-(1-ethyl-4-methyl-1H-benzo[d][1,2,3]triazol-5-yl)-2,2-dimethylpropanamido)pyrimidin-2-yl)oxy)acetate] here?
Its EC50 is 100 to 1000 nM.

How did the EC50 turn out when `CC[C@@H]1CN(Cc2cc([C@@H](c3ccc4c(nnn4CC)c3C)C(C)(C)C(=O)Nc3cnc(OCCNC(=O)OC(C)(C)C)nc3)ccc2C)S(=O)(=O)c2ccccc2O1` [Example 191, tert-Butyl (2-((5-((S)-3-(3-(((R)-4-ethyl-1,1-dioxido-3,4-dihydro-2H-benzo[b]-[1,4,5]oxathiazepin-2-yl)methyl)-4-methylphenyl)-3-(1-ethyl-4-methyl-1H-benzo[d][1,2,3]triazol-5-yl)-2,2-dimethylpropanamido)pyrimidin-2-yl)oxy)-ethyl)carbamate] was run?
The EC50 was 10 to 100 nM.

For `CC[C@@H]1CN(Cc2cc([C@@H](c3ccc4c(nnn4CC)c3C)C(C)(C)C(=O)Nc3cnc(OCCOC(C)(C)C)nc3)ccc2C)S(=O)(=O)c2ccccc2O1` [Example 192, (S)-N-(2-(2-(tert-Butoxy)ethoxy)pyrimidin-5-yl)-3-(3-(((R)-4-ethyl-1,1-dioxido-3,4-dihydro-2H-benzo[b][1,4,5]oxathiazepin-2-yl)methyl)-4-methylphenyl)-3-(1-ethyl-4-methyl-1H-benzo[d][1,2,3]triazol-5-yl)-2,2-dimethylpropanamide], which EC50 is on record?
The EC50 was 10 to 100 nM.

For `CC[C@@H]1CN(Cc2cc([C@@H](c3ccc4c(nnn4CC)c3C)C(C)(C)C(=O)Nc3cnc(OCCOC)nc3)ccc2C)S(=O)(=O)c2ccccc2O1` [Example 193, (S)-3-(3-(((R)-4-Ethyl-1,1-dioxido-3,4-dihydro-2H-benzo[b][1,4,5]oxathiazepin-2-yl)methyl)-4-methylphenyl)-3-(1-ethyl-4-methyl-1H-benzo[d][1,2,3]triazol-5-yl)-N-(2-(2-methoxyethoxy)pyrimidin-5-yl)-2,2-dimethylpropanamide], which EC50 is on record?
Its EC50 is 1 to 10 nM.

Which EC50 does the source give for `CC[C@@H]1CN(Cc2cc([C@@H](c3ccc4c(nnn4CC)c3C)C(C)(C)C(=O)Nc3cnc(CO)nc3)ccc2C)S(=O)(=O)c2ccccc2O1` [Example 194, (S)-3-(3-(((R)-4-Ethyl-1,1-dioxido-3,4-dihydro-2H-benzo[b][1,4,5]oxathiazepin-2-yl)methyl)-4-methylphenyl)-3-(1-ethyl-4-methyl-1H-benzo[d][1,2,3]triazol-5-yl)-N-(2-(hydroxymethyl)pyrimidin-5-yl)-2,2-dimethylpropanamide] here?
The EC50 was 10 to 100 nM.

`CC[C@@H]1CN(Cc2cc([C@@H](c3ccc4c(nnn4CC)c3C)C(C)(C)C(=O)Nc3cnc(C(=O)O)nc3)ccc2C)S(=O)(=O)c2ccccc2O1` [Example 195, 5-((S)-3-(3-(((R)-4-Ethyl-1,1-dioxido-3,4-dihydro-2H-benzo[b][1,4,5]oxathiazepin-2-yl)methyl)-4-methylphenyl)-3-(1-ethyl-4-methyl-1H-benzo[d][1,2,3]triazol-5-yl)-2,2-dimethylpropanamido)pyrimidine-2-carboxylic Acid] was tested. Which EC50 did it give?
Its EC50 is 10 to 100 nM.
